# In ChEMBL document CHEMBL1811903, “Protective role of 14-deoxy-11,12-didehydroandrographolide, a noncytotoxic analogue of andrographolide, in allergic airway inflammation” (J Nat Prod, 2011):
# Calls of active or inactive are those of the source. No cut-off for these calls is given here.
# Assays:
# Mus musculus [1] = experiment: Antiinflammatory activity in ovalbumin-sensitized BALB/c mouse asthma model assessed as reduction in mucus production in lung at 1 mg/kg, ip administered 2 hrs before and 10 hrs after ovalbumin challenge measured after 24 hrs using PAS staining by histologic analysis; assay type: functional, organism-based; parameters: dose 1 mg/kg
# [2] = Cytotoxicity against human BEAS2B cells assessed as reduction in cell viability at 3 to 120 uM after 24 to 48 hrs by MTS assay; assay type: cell-based; conditions: beas-2b
# Mus musculus [3] = experiment: Antiinflammatory activity in ovalbumin-sensitized BALB/c mouse asthma model assessed as reduction in IgG2a level in serum at 0.1 to 1 mg/kg, ip administered 2 hrs before and 10 hrs after ovalbumin challenge measured after 24 hrs by ELISA; assay type: functional, organism-based
# Mus musculus [4] = experiment: Antiinflammatory activity in ovalbumin-sensitized BALB/c mouse asthma model assessed as reduction in methacholine-induced maximum total lung resistance at 1 mg/kg, ip administered 2 hrs before and 10 hrs after ovalbumin challenge; assay type: functional, organism-based; parameters: dose 1 mg/kg
# Mus musculus [5] = experiment: Antiinflammatory activity in ovalbumin-sensitized BALB/c mouse asthma model assessed as reduction in methacholine-induced distensibility of the lung at 1 mg/kg, ip administered 2 hrs before and 10 hrs after ovalbumin challenge; assay type: functional, organism-based; parameters: dose 1 mg/kg
# Mus musculus [6] = experiment: Antiinflammatory activity in ovalbumin-sensitized BALB/c mouse asthma model lung assessed as suppression in COX-2 mRNA level at 1 mg/kg, ip administered 2 hrs before and 10 hrs after ovalbumin challenge measured after 24 hrs by RT-PCR analysis; assay type: functional, organism-based; parameters: dose 1 mg/kg
# Mus musculus [7] = experiment: Antiinflammatory activity in ovalbumin-sensitized BALB/c mouse asthma model assessed as reduction in goblet cell hyperplasia at 1 mg/kg, ip administered 2 hrs before and 10 hrs after ovalbumin challenge measured after 24 hrs using hematoxylin and eosin staining by histologic analysis; assay type: functional, organism-based; parameters: dose 1 mg/kg
# RBL-2H3 [8] = experiment: Cytotoxicity against rat RBL2H3 cells assessed as reduction in cell viability at 3 to 120 uM after 24 to 48 hrs by MTS assay; assay type: cell-based; conditions: rbl-2h3, 120 µM
# Mus musculus [9] = experiment: Antiinflammatory activity in ovalbumin-sensitized ip dosed BALB/c mouse asthma model assessed as reduction in eotaxin level in bronchoalveolar lavage fluid administered 2 hrs before and 10 hrs after ovalbumin challenge measured after 24 hrs by ELISA; assay type: functional, organism-based; conditions: Lung
# Mus musculus [10] = experiment: Antiinflammatory activity in ovalbumin-sensitized BALB/c mouse asthma model lung assessed as suppression in IL-33 mRNA level at 1 mg/kg, ip administered 2 hrs before and 10 hrs after ovalbumin challenge measured after 24 hrs by RT-PCR analysis; assay type: functional, organism-based; parameters: dose 1 mg/kg
# Mus musculus [11] = experiment: Antiinflammatory activity in ip dosed BALB/c mouse asthma model assessed as reduction in ovalbumin-induced total cell counts in bronchoalveolar lavage fluid administered 2 hrs before and 10 hrs after ovalbumin challenge measured after 24 hrs by cell counting; assay type: functional, organism-based; conditions: Lung
# Mus musculus [12] = experiment: Antiinflammatory activity in ovalbumin-sensitized BALB/c mouse asthma model lung assessed as suppression in […] mRNA level at 1 mg/kg, ip administered 2 hrs before and 10 hrs after ovalbumin challenge measured after 24 hrs by RT-PCR analysis; assay type: functional, organism-based; parameters: dose 1 mg/kg
# Mus musculus [13] = experiment: Inhibition of ovalbumin-induced mast cell degranulation in BALB/c mouse asthma model at 1 mg/kg, ip administered 2 hrs before and 10 hrs after ovalbumin challenge measured after 24 hrs using toluidine blue staining by cell counting; assay type: functional, organism-based; parameters: dose 1 mg/kg
# Mus musculus [14] = experiment: Toxicity in BALB/c mouse assessed as reduction in hemoglobin concentration at 1 mg/kg, ip; assay type: organism-based; parameters: dose 1 mg/kg, route intraperitoneal; conditions: in vivo
# [15] = target: Transcription factor p65 (Homo sapiens) (UniProt Q04206); experiment: Inhibition of NF-kappaB p65 subunit in TNFalpha-stimulated human A549 cells assessed as reduction in DNA binding activity at 30 uM after 24 hrs by ELISA; assay type: cell-based
# Mus musculus [16] = experiment: Antiinflammatory activity in BALB/c mouse asthma model assessed as reduction in ovalbumin-induced lymphocyte counts in bronchoalveolar lavage fluid at 1 mg/kg, ip administered 2 hrs before and 10 hrs after ovalbumin challenge measured after 24 hrs by cell counting; assay type: functional, organism-based; parameters: dose 1 mg/kg; conditions: Lung
# Mus musculus [17] = experiment: Antiinflammatory activity in ovalbumin-sensitized BALB/c mouse asthma model lung assessed as suppression in IL-17 mRNA level at 1 mg/kg, ip administered 2 hrs before and 10 hrs after ovalbumin challenge measured after 24 hrs by RT-PCR analysis; assay type: functional, organism-based; parameters: dose 1 mg/kg
# Mus musculus [18] = experiment: Antiinflammatory activity in ip dosed BALB/c mouse asthma model assessed as reduction in ovalbumin-induced eosinophil counts in bronchoalveolar lavage fluid administered 2 hrs before and 10 hrs after ovalbumin challenge measured after 24 hrs by cell counting; assay type: functional, organism-based; conditions: Lung
# A549 = experiment: Cytotoxicity against human A549 cells assessed as reduction in cell viability at 3 to 120 uM after 24 to 48 hrs by MTS assay; assay type: cell-based; conditions: a549, 120 µM
# RBL-2H3 [19] = experiment: Inhibition of IgE-mediated rat RBL2H3 cell degranulation assessed as inhibition of beta-hexosaminidase release; assay type: functional, cell-based
# Mus musculus [20] = experiment: Antiinflammatory activity in ovalbumin-sensitized BALB/c mouse asthma model assessed as reduction in total IgE level in serum at 0.1 to 1 mg/kg, ip administered 2 hrs before and 10 hrs after ovalbumin challenge measured after 24 hrs by ELISA; assay type: functional, organism-based
# Mus musculus [21] = experiment: Antiinflammatory activity in ovalbumin-sensitized BALB/c mouse asthma model lung assessed as suppression in E-selectin mRNA level at 1 mg/kg, ip administered 2 hrs before and 10 hrs after ovalbumin challenge measured after 24 hrs by RT-PCR analysis; assay type: functional, organism-based; parameters: dose 1 mg/kg
# Mus musculus [22] = experiment: Antiinflammatory activity in ovalbumin-sensitized BALB/c mouse asthma model lung assessed as reduction in NF-kappaB DNA binding activity at 1 mg/kg, ip administered 2 hrs before and 10 hrs after ovalbumin challenge measured after 24 hrs by immunoblotting; assay type: functional, organism-based; parameters: dose 1 mg/kg
# Mus musculus [23] = experiment: Toxicity in BALB/c mouse assessed as reduction in red blood cell count at 1 mg/kg, ip; assay type: organism-based; parameters: dose 1 mg/kg, route intraperitoneal; conditions: in vivo
# Mus musculus [24] = experiment: Antiinflammatory activity in ovalbumin-sensitized BALB/c mouse asthma model lung assessed as suppression in MCP-1 mRNA level at 1 mg/kg, ip administered 2 hrs before and 10 hrs after ovalbumin challenge measured after 24 hrs by RT-PCR analysis; assay type: functional, organism-based; parameters: dose 1 mg/kg
# Mus musculus [25] = experiment: Antiinflammatory activity in ovalbumin-sensitized BALB/c mouse asthma model lung assessed as suppression in Ym-2 mRNA level at 1 mg/kg, ip administered 2 hrs before and 10 hrs after ovalbumin challenge measured after 24 hrs by RT-PCR analysis; assay type: functional, organism-based; parameters: dose 1 mg/kg
# Mus musculus [26] = experiment: Toxicity in BALB/c mouse assessed as reduction in white blood cell count at 1 mg/kg, ip; assay type: organism-based; parameters: dose 1 mg/kg, route intraperitoneal; conditions: in vivo
# Mus musculus [27] = experiment: Antiinflammatory activity in ovalbumin-sensitized BALB/c mouse asthma model assessed as reduction in IgG1 level in serum at 0.1 to 1 mg/kg, ip administered 2 hrs before and 10 hrs after ovalbumin challenge measured after 24 hrs by ELISA; assay type: functional, organism-based
# Mus musculus [28] = experiment: Antiinflammatory activity in ovalbumin-sensitized BALB/c mouse asthma model lung assessed as suppression in VCAM-1 mRNA level at 1 mg/kg, ip administered 2 hrs before and 10 hrs after ovalbumin challenge measured after 24 hrs by RT-PCR analysis; assay type: functional, organism-based; parameters: dose 1 mg/kg
# Mus musculus [29] = experiment: Antiinflammatory activity in ovalbumin-sensitized ip dosed BALB/c mouse asthma model assessed as reduction in IL-4 level in bronchoalveolar lavage fluid administered 2 hrs before and 10 hrs after ovalbumin challenge measured after 24 hrs by ELISA; assay type: functional, organism-based; conditions: Lung
# Mus musculus [30] = experiment: Toxicity in BALB/c mouse assessed as reduction in hematocrit at 1 mg/kg, ip; assay type: organism-based; parameters: dose 1 mg/kg, route intraperitoneal; conditions: in vivo
# Mus musculus [31] = experiment: Antiinflammatory activity in ovalbumin-sensitized ip dosed BALB/c mouse asthma model assessed as reduction in IL-13 level in bronchoalveolar lavage fluid administered 2 hrs before and 10 hrs after ovalbumin challenge measured after 24 hrs by ELISA; assay type: functional, organism-based; conditions: Lung
# [32] = target: Transcription factor p65 (Homo sapiens) (UniProt Q04206); experiment: Inhibition of NF-kappaB p65 subunit translocation in TNFalpha-stimulated human A549 cells assessed as reduction in p65 level in nuclear extract at 30 uM after 24 hrs by immunoblotting; assay type: cell-based
# Mus musculus [33] = experiment: Antiinflammatory activity in BALB/c mouse asthma model assessed as reduction in ovalbumin-induced macrophage counts in bronchoalveolar lavage fluid at 1 mg/kg, ip administered 2 hrs before and 10 hrs after ovalbumin challenge measured after 24 hrs by cell counting; assay type: functional, organism-based; parameters: dose 1 mg/kg; conditions: Lung
# Mus musculus [34] = experiment: Antiinflammatory activity in ovalbumin-sensitized BALB/c mouse asthma model lung assessed as suppression in Ym-1 mRNA level at 1 mg/kg, ip administered 2 hrs before and 10 hrs after ovalbumin challenge measured after 24 hrs by RT-PCR analysis; assay type: functional, organism-based; parameters: dose 1 mg/kg
# Mus musculus [35] = experiment: Antiinflammatory activity in ovalbumin-sensitized BALB/c mouse asthma model lung assessed as suppression in Muc5ac mRNA level at 1 mg/kg, ip administered 2 hrs before and 10 hrs after ovalbumin challenge measured after 24 hrs by RT-PCR analysis; assay type: functional, organism-based; parameters: dose 1 mg/kg
# Mus musculus [36] = experiment: Antiinflammatory activity in ovalbumin-sensitized ip dosed BALB/c mouse asthma model assessed as reduction in IL-5 level in bronchoalveolar lavage fluid administered 2 hrs before and 10 hrs after ovalbumin challenge measured after 24 hrs by ELISA; assay type: functional, organism-based; conditions: Lung
# Mus musculus [37] = experiment: Antiinflammatory activity in ovalbumin-sensitized BALB/c mouse asthma model lung assessed as Inhibition of NF-kappaB p65 subunit nuclear translocation at 1 mg/kg, ip administered 2 hrs before and 10 hrs after ovalbumin challenge measured after 24 hrs by immunoblotting; assay type: functional, organism-based; parameters: dose 1 mg/kg
# Mus musculus [38] = experiment: Antiinflammatory activity in ovalbumin-sensitized BALB/c mouse asthma model lung assessed as suppression in AMCase mRNA level at 1 mg/kg, ip administered 2 hrs before and 10 hrs after ovalbumin challenge measured after 24 hrs by RT-PCR analysis; assay type: functional, organism-based; parameters: dose 1 mg/kg
# Mus musculus [39] = experiment: Antiinflammatory activity in ovalbumin-sensitized BALB/c mouse asthma model assessed as reduction in IgE level in serum at 0.1 to 1 mg/kg, ip administered 2 hrs before and 10 hrs after ovalbumin challenge measured after 24 hrs by ELISA; assay type: functional, organism-based
# Chain of Transcription factor p65 (Homo sapiens) (Q04206 whole entry): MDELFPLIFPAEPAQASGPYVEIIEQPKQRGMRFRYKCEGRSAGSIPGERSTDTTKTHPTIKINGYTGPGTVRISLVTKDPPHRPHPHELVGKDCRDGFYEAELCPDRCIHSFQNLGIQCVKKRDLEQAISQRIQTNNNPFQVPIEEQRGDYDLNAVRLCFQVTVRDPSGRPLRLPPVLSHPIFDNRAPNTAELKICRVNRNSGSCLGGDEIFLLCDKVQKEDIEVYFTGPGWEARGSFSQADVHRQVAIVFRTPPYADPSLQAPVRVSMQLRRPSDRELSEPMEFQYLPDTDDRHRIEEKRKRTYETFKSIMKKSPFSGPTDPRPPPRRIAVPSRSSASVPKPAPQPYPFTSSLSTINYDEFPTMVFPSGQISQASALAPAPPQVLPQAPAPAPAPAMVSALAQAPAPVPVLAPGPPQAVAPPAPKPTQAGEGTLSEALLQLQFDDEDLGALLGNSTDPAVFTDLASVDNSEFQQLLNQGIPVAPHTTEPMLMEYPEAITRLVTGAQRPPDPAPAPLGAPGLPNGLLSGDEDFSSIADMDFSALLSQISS
compound,measurement,setting,value
C=C1CC[C@@H]2[C@](C)(CO)[C@H](O)CC[C@@]2(C)[C@@H]1/C=C/C1=CCOC1=O,Activity,Mus musculus [1],Active
same,Activity,[2],Non-toxic
same,Activity,Mus musculus [3],inactive
same,Activity,Mus musculus [4],Active
same,Activity,Mus musculus [5],Active
same,Activity,Mus musculus [6],Active
same,Activity,Mus musculus [7],Active
same,Activity,RBL-2H3 [8],Non-toxic
same,Activity,Mus musculus [9],Dose-dependent effect
same,Activity,Mus musculus [10],Active
same,Activity,Mus musculus [11],Dose-dependent effect
same,Activity,Mus musculus [12],Active
same,inhibition,Mus musculus [13],inactive
same,Activity,Mus musculus [14],Non-toxic
same,inhibition,[15],Active
same,Activity,Mus musculus [16],Active
same,Activity,Mus musculus [17],Active
same,Activity,Mus musculus [18],Dose-dependent effect
same,Activity,A549,Non-toxic
same,inhibition,RBL-2H3 [19],inactive
same,Activity,Mus musculus [20],Active
same,Activity,Mus musculus [21],Active
same,Activity,Mus musculus [22],Active
same,Activity,Mus musculus [23],Non-toxic
same,Activity,Mus musculus [24],Active
same,Activity,Mus musculus [25],Active
same,Activity,Mus musculus [26],Non-toxic
same,Activity,Mus musculus [27],Active
same,Activity,Mus musculus [28],Active
same,Activity,Mus musculus [29],Dose-dependent effect
same,Activity,Mus musculus [30],Non-toxic
same,Activity,Mus musculus [31],Dose-dependent effect
same,inhibition,[32],Active
same,Activity,Mus musculus [33],Active
same,Activity,Mus musculus [34],Active
same,Activity,Mus musculus [35],Active
same,Activity,Mus musculus [36],Dose-dependent effect
same,inhibition,Mus musculus [37],Active
same,Activity,Mus musculus [38],Active
same,Activity,Mus musculus [39],Active
